From PubChem BioAssay AID623924 (Vanderbilt Specialized Chemistry Center, 2012) come the findings set out here.

The source made the active and inactive calls.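 The calls were made as follows: active = response changes with concentration, giving a dose-dependent curve as judged by the depositor; inactive = the rest, with no dose-dependent response.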

The target in this assay is Muscarinic acetylcholine receptor M1 (Homo sapiens) (UniProt P11229). The experiment in a line: potentiation of ACh response at hM1 – CHO-K1 cells, calcium fluorescence, selectivity assay for M4 PAM optimization, SAR follow-up (AID 623924). As to conditions: ACh EC20 potentiation; for % ACh max response: at 30 µM (top of the series).
Chain of Muscarinic acetylcholine receptor M1 (Homo sapiens) (P11229 whole entry, looked up): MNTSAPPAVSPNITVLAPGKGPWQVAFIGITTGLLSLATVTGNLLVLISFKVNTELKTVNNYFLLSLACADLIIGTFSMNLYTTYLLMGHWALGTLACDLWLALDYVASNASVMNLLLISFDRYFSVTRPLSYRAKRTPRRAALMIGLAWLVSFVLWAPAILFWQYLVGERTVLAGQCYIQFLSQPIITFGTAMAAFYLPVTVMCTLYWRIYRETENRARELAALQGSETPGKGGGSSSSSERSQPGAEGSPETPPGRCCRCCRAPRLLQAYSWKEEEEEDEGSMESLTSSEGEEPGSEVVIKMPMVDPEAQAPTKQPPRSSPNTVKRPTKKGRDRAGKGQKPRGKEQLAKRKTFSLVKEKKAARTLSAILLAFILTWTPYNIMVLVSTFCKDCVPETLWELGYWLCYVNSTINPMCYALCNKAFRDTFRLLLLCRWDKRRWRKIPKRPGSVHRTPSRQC

Turning to `Cc1nc2sc(C(=O)NCc3ccccc3)c(N)c2c(C)c1Cl`, the outcome was inactive.

Turning to `COc1ccc(C)c2sc(NC(=O)c3ccncc3)nc12`, the “% ACh max response” value is “inactive”.

`Cc1nc2sc(C(=O)NCc3nccs3)c(N)c2c(C)c1Cl`: the “% ACh max response” value was “inactive”.

In the case of `Cc1nc2sc(C(=O)NCCc3ccncc3)c(N)c2c(C)c1Cl`, the “% ACh max response” value was “inactive”.

As for `Cc1nc2sc(C(=O)NCc3cccnc3)c(N)c2c(C)c1Cl`, the result was inactive.

For the compound `Cc1nc2sc(C(=O)NCc3ccncn3)c(N)c2c(C)c1Cl`, the “% ACh max response” value is “inactive”.

On to `Cc1nc2sc(C(=O)NCc3ccc4c(c3)OCO4)c(N)c2c(C)c1Cl`, for which the result was inactive.

As for `Cc1nc2sc(C(=O)NC3CC3)c(N)c2c(C)c1Cl`, the EC50 (usually the concentration giving half of the maximal effect) was 969 nM.

`Cc1nc2sc(C(=O)NCc3ccncc3)c(N)c2c(C)c1Cl`: the result was inactive.

`Cc1nc2sc(C(=O)NCc3cccc(F)c3F)c(N)c2c(C)c1Cl`: the “% ACh max response” value is “inactive”.
